Converted amounts (≈) assume the structure as drawn.
Experiments:
Type in all cases: cell-based
[1] = system: Streptococcus pyogenes ATCC19615; test: MIC, microbroth dilution (NCCLS); conditions: rifS strain, THY Broth, 37° C., read-out: MIC
[2] = system: Haemophilus influenzae ATCC10211; test: MIC, microbroth dilution (NCCLS); conditions: rifS strain, BHI Broth with NAD and hematin, 37° C., read-out: MIC
[3] = system: Staphylococcus aureus ATCC29213; test: MIC, microbroth dilution (NCCLS); conditions: rifS strain, Cation-Adjusted Mueller-Hinton Broth, 37° C., read-out: MIC
[4] = system: Staphylococcus aureus MT1222 gyrA^A116E grlB^S80F; test: microbe, parasite or virus in culture; conditions: cipR strain, Cation-Adjusted Mueller-Hinton Broth, 37° C., read-out: MIC
[5] = system: Staphylococcus aureus ATCC29213 rpoB^H418Y; test: microbe, parasite or virus in culture; conditions: Staphylococcus aureus, ATCC29213; rifR strain; Cation-Adjusted Mueller-Hinton Broth, 37° C.; read-out: MIC
[6] = system: Streptococcus pneumoniae ATCC6303; test: MIC, microbroth dilution (NCCLS); conditions: rifS strain, THY Broth with 1 mg/mL catalase, 5% CO2, 37° C., read-out: MIC
[7] = system: Staphylococcus epidermidis ATCC12228; test: MIC, microbroth dilution (NCCLS); conditions: rifS strain, Cation-Adjusted Mueller-Hinton Broth, 37° C., read-out: MIC

SMILES: CO[C@H]1/C=C/O[C@@]2(C)Oc3c(C)c(O)c4c(O)c(c(/C=N/N5CCN(C6CCN(c7nc8c(cc7F)c(=O)c(C(=O)O)cn8-c7ccc(F)cc7F)C6)CC5)c(O)c4c3C2=O)NC(=O)/C(C)=C\C=C\[C@H](C)[C@H](O)[C@@H](C)[C@@H](O)[C@@H](C)[C@H](OC(C)=O)[C@@H]1C (mixture of isomers) [Example 34]
- MIC [1]: 0.008 to 0.03 µg/mL (≈ 0.00669 to 0.0251 µM)
- MIC [2]: 0.125 to 4 µg/mL (≈ 0.104 to 3.34 µM)
- MIC [3]: 0.008 to 1 µg/mL (≈ 0.00669 to 0.836 µM)
- MIC [4]: 0.008 to 0.125 µg/mL (≈ 0.00669 to 0.104 µM)
- MIC [5]: 0.06 to 16 µg/mL (≈ 0.0502 to 13.4 µM)
- MIC [6]: 0.008 to 0.06 µg/mL (≈ 0.00669 to 0.0502 µM)
- MIC [7]: 0.008 to 0.1 µg/mL (≈ 0.00669 to 0.0836 µM)

SMILES: CO[C@H]1/C=C/O[C@@]2(C)Oc3c(C)c(O)c4c(O)c(c(/C=N/N5CCN(C(=O)C6CCN(c7nc8c(cc7F)c(=O)c(C(=O)O)cn8-c7ccc(F)cc7F)C6)CC5)c(O)c4c3C2=O)NC(=O)/C(C)=C\C=C\[C@H](C)[C@H](O)[C@@H](C)[C@@H](O)[C@@H](C)[C@H](OC(C)=O)[C@@H]1C (mixture of isomers) [Example 36, (R/S)-3-{4-[1-(3-Carboxy-1-(2,4-difluoro-phenyl)-6-fluoro-4-oxo-1,4-dihydro-[1,8]naphthyridine-7-yl)-pyrrolidin-3-yl-carbonyl]-piperazin-1-yl-aminomethylenyl}-rifamycin SV]
- MIC [1]: 0.008 to 0.03 µg/mL (≈ 0.00653 to 0.0245 µM)
- MIC [2]: 0.125 to 4 µg/mL (≈ 0.102 to 3.27 µM)
- MIC [3]: 0.008 to 1 µg/mL (≈ 0.00653 to 0.817 µM)
- MIC [4]: 0.008 to 0.125 µg/mL (≈ 0.00653 to 0.102 µM)
- MIC [5]: 0.06 to 16 µg/mL (≈ 0.049 to 13.1 µM)
- MIC [6]: 0.008 to 0.06 µg/mL (≈ 0.00653 to 0.049 µM)
- MIC [7]: 0.008 to 0.1 µg/mL (≈ 0.00653 to 0.0817 µM)

SMILES: COc1c(N2CCC(C3(N4CCN(/N=C/c5c6c(O)c7c(O)c(C)c8c(c7c5O)C(=O)[C@@](C)(O/C=C/[C@H](OC)[C@@H](C)[C@@H](OC(C)=O)[C@H](C)[C@H](O)[C@H](C)[C@@H](O)[C@@H](C)/C=C/C=C(/C)C(=O)N6)O8)CC4)CC3)C2)c(F)cc2c(=O)c(C(=O)O)cn(C3CC3)c12 (mixture of isomers) [Example 37, (R/S)-3-{4-[1-(3-Carboxy-1-cyclopropyl-6-fluoro-8-methoxy-4-oxo-1,4-dihydroquinoline-7-yl)-pyrrolidin-3-yl-cyclopropyl]-piperazin-1-yl-aminomethylenyl}-rifamycin SV]
- MIC [1]: 0.008 to 0.03 µg/mL (≈ 0.0067 to 0.0251 µM)
- MIC [2]: 0.125 to 4 µg/mL (≈ 0.105 to 3.35 µM)
- MIC [3]: 0.008 to 1 µg/mL (≈ 0.0067 to 0.838 µM)
- MIC [4]: 0.008 to 0.125 µg/mL (≈ 0.0067 to 0.105 µM)
- MIC [5]: 0.06 to 16 µg/mL (≈ 0.0503 to 13.4 µM)
- MIC [6]: 0.008 to 0.06 µg/mL (≈ 0.0067 to 0.0503 µM)
- MIC [7]: 0.008 to 0.1 µg/mL (≈ 0.0067 to 0.0838 µM)

SMILES: CO[C@H]1/C=C/O[C@@]2(C)Oc3c(C)c(O)c4c(O)c(c(/C=N/NCC5CCN(c6c(F)cc7c(=O)c(C(=O)O)cn(C8CC8)c7c6Cl)C5)c(O)c4c3C2=O)NC(=O)/C(C)=C\C=C\[C@H](C)[C@H](O)[C@@H](C)[C@@H](O)[C@@H](C)[C@H](OC(C)=O)[C@@H]1C (mixture of isomers) [Example 39, (R/S)-3-[1-(3-Carboxy-8-chloro-1-cyclopropyl-6-fluoro-4-oxo-1,4-dihydroquinolin-7-yl)-pyrrolidin-3-yl-methyl-hydrazino-methylenyl]-rifamycin SV]
- MIC [1]: 0.008 to 0.03 µg/mL (≈ 0.00726 to 0.0272 µM)
- MIC [2]: 0.125 to 4 µg/mL (≈ 0.113 to 3.63 µM)
- MIC [3]: 0.008 to 1 µg/mL (≈ 0.00726 to 0.907 µM)
- MIC [4]: 0.008 to 0.125 µg/mL (≈ 0.00726 to 0.113 µM)
- MIC [5]: 0.06 to 16 µg/mL (≈ 0.0544 to 14.5 µM)
- MIC [6]: 0.008 to 0.06 µg/mL (≈ 0.00726 to 0.0544 µM)
- MIC [7]: 0.008 to 0.1 µg/mL (≈ 0.00726 to 0.0907 µM)

SMILES: CO[C@H]1/C=C/O[C@@]2(C)Oc3c(C)c(O)c4c(O)c(c(/C=N/N(C)C5CCN(c6nc7c(cc6F)c(=O)c(C(=O)O)cn7-c6ccc(F)cc6F)C5)c(O)c4c3C2=O)NC(=O)/C(C)=C\C=C\[C@H](C)[C@H](O)[C@@H](C)[C@@H](O)[C@@H](C)[C@H](OC(C)=O)[C@@H]1C (mixture of isomers) [Example 43, (R/S)-3-[1-[3-Carboxy-1-(2,4-difluoro-phenyl)-6-fluoro-4-oxo-1,4-dihydro-[1,8]naphthyridin-7-yl]-pyrrolidinyl-3-N′-methylhydrazinomethylenyl]rifamycin SV]
- MIC [1]: 0.008 to 0.03 µg/mL (≈ 0.00701 to 0.0263 µM)
- MIC [2]: 0.125 to 4 µg/mL (≈ 0.11 to 3.51 µM)
- MIC [3]: 0.008 to 1 µg/mL (≈ 0.00701 to 0.876 µM)
- MIC [4]: 0.008 to 0.125 µg/mL (≈ 0.00701 to 0.11 µM)
- MIC [5]: 0.06 to 16 µg/mL (≈ 0.0526 to 14 µM)
- MIC [6]: 0.008 to 0.06 µg/mL (≈ 0.00701 to 0.0526 µM)
- MIC [7]: 0.008 to 0.1 µg/mL (≈ 0.00701 to 0.0876 µM)

SMILES: CO[C@H]1/C=C/O[C@@]2(C)Oc3c(C)c(O)c4c(O)c(c(/C=N/N5CCN(c6c(F)cc7c(=O)c(C(=O)O)cn8c7c6OCC8C)CC5C)c(O)c4c3C2=O)NC(=O)/C(C)=C\C=C\[C@H](C)[C@H](O)[C@@H](C)[C@@H](O)[C@@H](C)[C@H](OC(C)=O)[C@@H]1C (mixture of isomers) [Example 44, (R/S)-3-[9-fluoro-3-methyl-10-(3-methyl-piperazin-1-hydrazinomethylenyl)-7-oxo-7H-pyrido[1,2,3-de]-1,4-benzoxazine-6-carboxylic acid]rifamycin SV]
- MIC [1]: 0.008 to 0.03 µg/mL (≈ 0.00738 to 0.0277 µM)
- MIC [2]: 0.125 to 4 µg/mL (≈ 0.115 to 3.69 µM)
- MIC [3]: 0.008 to 1 µg/mL (≈ 0.00738 to 0.922 µM)
- MIC [4]: 0.008 to 0.125 µg/mL (≈ 0.00738 to 0.115 µM)
- MIC [5]: 0.06 to 16 µg/mL (≈ 0.0553 to 14.8 µM)
- MIC [6]: 0.008 to 0.06 µg/mL (≈ 0.00738 to 0.0553 µM)
- MIC [7]: 0.008 to 0.1 µg/mL (≈ 0.00738 to 0.0922 µM)

From patent US7238694B2, “Rifamycin imino derivatives effective against drug-resistant microbes” (Cumbre Pharmaceuticals, Inc., priority 2004, dated 2007)
